These results are taken from patent US7405307B2, “Biphenylcarboxamides useful as lipid lowering agents” (Janssen Pharmaceutica N.V., priority 2000, dated 2008).

SMILES strings stand for the structures.

The test system of the first data set is ApoB secretion, HepG2 cells. The experiment in a line: Quantification of the secretion of ApoB. In kind it is cell-based. The conditions noted are these: Homo sapiens, 24 hours of incubation with test compound, apoB immunoprecipitation, read-out: pIC50 values (= −log IC50 value) (converted). The protocol:
C. Pharmacological Examples C.1. Quantification of the Secretion of ApoB.
HepG2 cells were cultured in 24-well plates in MEM Rega 3 containing 10% fetal calf serum. At 70% confluency, the medium was changed and the test compound or carrier (DMSO, 0.4% final concentration) was added. After 24 hours of incubation, the medium was transferred to Eppendorf tubes and cleared by centrifugation. A sheep antibody directed against either apoB was added to the supernatant and the mixture was kept at 8° C. for 24 hours. Then, rabbit anti-sheep antibody was added and the immune complex was allowed to precipitate for 24 hours at 8° C. The immunoprecipitate was pelleted by centrifugation for 25 minutes at 1320 g and washed twice with a buffer containing 40 mM Mops, 40 mM NaH2PO4, 100 mM NaF, 0.2 mM DTT, 5 mM EDTA, 5 mM EGTA, 1% Triton-X-100, 0.5% sodium deoxycholate (DOC), 0.1% SDS, 0.2 μM leupeptin and 0.2 μM PMSF. Radioactivity in the pellet was quantified by liquid scintillation counting.
Resulting IC50 values are enumerated in Table C.1
For orientation: IC50 means the concentration that inhibits the measured activity by half. `COC(=O)C(NCCNc1ccc(NC(=O)c2ccccc2-c2ccc(C(F)(F)F)cc2)cc1)c1ccccc1` (stereo not shown) [Compound 1]: the IC50 is 71 nM.
Same read-out and setting: the value for `COC(=O)C(NCCCNc1ccc(NC(=O)c2ccccc2-c2ccc(C(F)(F)F)cc2)cc1)c1ccccc1` (stereo not shown) [Compound 2] was 317 nM; that for `COC(=O)C(c1ccccc1)N(C)CCCN(C)c1ccc(NC(=O)c2ccccc2-c2ccc(C(F)(F)F)cc2)cc1` (stereo not shown) [Compound 3] was 766 nM.
For the compound `COC(=O)C(c1ccccc1)N(C)CCN(C)c1ccc(NC(=O)c2ccccc2-c2ccc(C(F)(F)F)cc2)cc1` (stereo not shown) [Compound 4], the IC50 is 98.4 nM.
With `COC(=O)C(NCC(C)(C)CNc1ccc(NC(=O)c2ccccc2-c2ccc(C(F)(F)F)cc2)cc1)c1ccccc1` (stereo not shown) [Compound 5], the IC50 is 1020 nM.
Same read-out and setting: the value for `COC(=O)C(NC1CCC(Nc2ccc(NC(=O)c3ccccc3-c3ccc(C(F)(F)F)cc3)cc2)CC1)c1ccccc1` (stereo not shown) [Compound 6] was 2070 nM; that for `CCOC(=O)C(NCCNc1ccc(NC(=O)c2ccccc2-c2ccc(C(F)(F)F)cc2)cc1)c1ccccc1` (stereo not shown) [Compound 7] was 330 nM; that for `CCOC(=O)C(NCCCNc1ccc(NC(=O)c2ccccc2-c2ccc(C(F)(F)F)cc2)cc1)c1ccccc1` (stereo not shown) [Compound 8] was 129 nM.
On the same count and under the same terms, the value for `CCOC(=O)C(c1ccccc1)N(C)CCN(C)c1ccc(NC(=O)c2ccccc2-c2ccc(C(F)(F)F)cc2)cc1` (stereo not shown) [Compound 9] was 566 nM; that for `CCOC(=O)C(NCC(C)(C)CNc1ccc(NC(=O)c2ccccc2-c2ccc(C(F)(F)F)cc2)cc1)c1ccccc1` (stereo not shown) [Compound 10] was 948 nM.
As for `CCOC(=O)C(NC1CCC(Nc2ccc(NC(=O)c3ccccc3-c3ccc(C(F)(F)F)cc3)cc2)CC1)c1ccccc1` (stereo not shown) [Compound 11], the IC50 is 1370 nM.
On to `CCCOC(=O)C(NCCNc1ccc(NC(=O)c2ccccc2-c2ccc(C(F)(F)F)cc2)cc1)c1ccccc1` (stereo not shown) [Compound 12], for which the IC50 was 689 nM.
As to `CCCOC(=O)C(NCCCNc1ccc(NC(=O)c2ccccc2-c2ccc(C(F)(F)F)cc2)cc1)c1ccccc1` (stereo not shown) [Compound 13], the IC50 was 488 nM.
Still for that read-out and setting: the value for `CCCOC(=O)C(c1ccccc1)N(C)CCCN(C)c1ccc(NC(=O)c2ccccc2-c2ccc(C(F)(F)F)cc2)cc1` (stereo not shown) [Compound 14] was 938 nM; that for `CCCOC(=O)C(c1ccccc1)N(C)CCN(C)c1ccc(NC(=O)c2ccccc2-c2ccc(C(F)(F)F)cc2)cc1` (stereo not shown) [Compound 15] was 757 nM.
Same read-out and setting: next, `CCCOC(=O)C(NCC(C)(C)CNc1ccc(NC(=O)c2ccccc2-c2ccc(C(F)(F)F)cc2)cc1)c1ccccc1` (stereo not shown) [Compound 16]: 1260 nM; `CCCOC(=O)C(NC1CCC(Nc2ccc(NC(=O)c3ccccc3-c3ccc(C(F)(F)F)cc3)cc2)CC1)c1ccccc1` (stereo not shown) [Compound 17]: 809 nM; `CCNC(=O)C(NCCNc1ccc(NC(=O)c2ccccc2-c2ccc(C(F)(F)F)cc2)cc1)c1ccccc1` (stereo not shown) [Compound 18]: less than 30 nM.
For the compound `CCNC(=O)C(NCCCNc1ccc(NC(=O)c2ccccc2-c2ccc(C(F)(F)F)cc2)cc1)c1ccccc1` (stereo not shown) [Compound 19], the IC50 is 229 nM.
Take `CCNC(=O)C(c1ccccc1)N(C)CCCN(C)c1ccc(NC(=O)c2ccccc2-c2ccc(C(F)(F)F)cc2)cc1` (stereo not shown) [Compound 20]: the IC50 was 1930 nM.
The same measure, in the same setting: next, `CCNC(=O)C(c1ccccc1)N(C)CCN(C)c1ccc(NC(=O)c2ccccc2-c2ccc(C(F)(F)F)cc2)cc1` (stereo not shown) [Compound 21]: 506 nM; `CCNC(=O)C(NCC(C)(C)CNc1ccc(NC(=O)c2ccccc2-c2ccc(C(F)(F)F)cc2)cc1)c1ccccc1` (stereo not shown) [Compound 22]: 1030 nM; `CCNC(=O)C(NC1CCC(Nc2ccc(NC(=O)c3ccccc3-c3ccc(C(F)(F)F)cc3)cc2)CC1)c1ccccc1` (stereo not shown) [Compound 23]: 1570 nM.
Still for that read-out and setting: the value for `CCCNC(=O)C(NCCNc1ccc(NC(=O)c2ccccc2-c2ccc(C(F)(F)F)cc2)cc1)c1ccccc1` (stereo not shown) [Compound 24] was 171 nM.
On the same count and under the same terms, next, `CCCNC(=O)C(NCCCNc1ccc(NC(=O)c2ccccc2-c2ccc(C(F)(F)F)cc2)cc1)c1ccccc1` (stereo not shown) [Compound 25]: 948 nM; `CCCNC(=O)C(c1ccccc1)N(C)CCCN(C)c1ccc(NC(=O)c2ccccc2-c2ccc(C(F)(F)F)cc2)cc1` (stereo not shown) [Compound 26]: 1970 nM.
In the case of `CCCNC(=O)C(c1ccccc1)N(C)CCN(C)c1ccc(NC(=O)c2ccccc2-c2ccc(C(F)(F)F)cc2)cc1` (stereo not shown) [Compound 27], the IC50 is 625 nM.
On to `CCCNC(=O)C(NCC(C)(C)CNc1ccc(NC(=O)c2ccccc2-c2ccc(C(F)(F)F)cc2)cc1)c1ccccc1` (stereo not shown) [Compound 28], for which the IC50 was 1490 nM.
Same read-out and setting: the value for `CCCNC(=O)C(NC1CCC(Nc2ccc(NC(=O)c3ccccc3-c3ccc(C(F)(F)F)cc3)cc2)CC1)c1ccccc1` (stereo not shown) [Compound 29] was 753 nM; that for `COC(=O)C(NC1CCN(c2ccc(NC(=O)c3ccccc3-c3ccc(C(F)(F)F)cc3)cc2)CC1)c1ccccc1` (stereo not shown) [Compound 98] was 1580 nM; that for `COC(=O)C(c1ccccc1)N(C)C1CCN(c2ccc(NC(=O)c3ccccc3-c3ccc(C(F)(F)F)cc3)cc2)C1` (stereo not shown) [Compound 100] was 41.7 nM.
Consider `COC(=O)C(NC1CCN(c2ccc(NC(=O)c3ccccc3-c3ccc(C(F)(F)F)cc3)cc2)C1)c1ccccc1` (stereo not shown) [Compound 101], for which the IC50 was 40.9 nM.
`CCOC(=O)C(c1ccccc1)N1CCC(Nc2ccc(NC(=O)c3ccccc3-c3ccc(C(F)(F)F)cc3)cc2)CC1` (stereo not shown) [Compound 102]: the IC50 is greater than 3000 nM.
Turning to `CCOC(=O)C(NC1CCN(c2ccc(NC(=O)c3ccccc3-c3ccc(C(F)(F)F)cc3)cc2)CC1)c1ccccc1` (stereo not shown) [Compound 103], the IC50 was 1600 nM.
Still for that read-out and setting: next, `CCOC(=O)C(c1ccccc1)N(C)C1CCN(c2ccc(NC(=O)c3ccccc3-c3ccc(C(F)(F)F)cc3)cc2)C1` (stereo not shown) [Compound 104]: less than 30 nM; `CCOC(=O)C(NC1CCN(c2ccc(NC(=O)c3ccccc3-c3ccc(C(F)(F)F)cc3)cc2)C1)c1ccccc1` (stereo not shown) [Compound 105]: 183 nM; `CCCOC(=O)C(c1ccccc1)N1CCC(Nc2ccc(NC(=O)c3ccccc3-c3ccc(C(F)(F)F)cc3)cc2)CC1` (stereo not shown) [Compound 106]: 3000 nM.
Still for that read-out and setting: the value for `CCCOC(=O)C(NC1CCN(c2ccc(NC(=O)c3ccccc3-c3ccc(C(F)(F)F)cc3)cc2)CC1)c1ccccc1` (stereo not shown) [Compound 107] was 1570 nM; that for `CCCOC(=O)C(c1ccccc1)N(C)C1CCN(c2ccc(NC(=O)c3ccccc3-c3ccc(C(F)(F)F)cc3)cc2)C1` (stereo not shown) [Compound 108] was 69 nM.
Still for that read-out and setting: the value for `CCCOC(=O)C(NC1CCN(c2ccc(NC(=O)c3ccccc3-c3ccc(C(F)(F)F)cc3)cc2)C1)c1ccccc1` (stereo not shown) [Compound 109] was 150 nM.
Turning to `CCNC(=O)C(c1ccccc1)N1CCC(Nc2ccc(NC(=O)c3ccccc3-c3ccc(C(F)(F)F)cc3)cc2)CC1` (stereo not shown) [Compound 110], the IC50 was 1170 nM.
Turning to `CCNC(=O)C(NC1CCN(c2ccc(NC(=O)c3ccccc3-c3ccc(C(F)(F)F)cc3)cc2)CC1)c1ccccc1` (stereo not shown) [Compound 111], the IC50 is 348 nM.
Regarding `CCNC(=O)C(c1ccccc1)N(C)C1CCN(c2ccc(NC(=O)c3ccccc3-c3ccc(C(F)(F)F)cc3)cc2)C1` (stereo not shown) [Compound 112], the IC50 is 39.4 nM.
`CCNC(=O)C(NC1CCN(c2ccc(NC(=O)c3ccccc3-c3ccc(C(F)(F)F)cc3)cc2)C1)c1ccccc1` (stereo not shown) [Compound 113]: the IC50 is 10.7 nM.
Still for that read-out and setting: next, `CCCNC(=O)C(c1ccccc1)N1CCC(Nc2ccc(NC(=O)c3ccccc3-c3ccc(C(F)(F)F)cc3)cc2)CC1` (stereo not shown) [Compound 114]: 2610 nM; `CCCNC(=O)C(NC1CCN(c2ccc(NC(=O)c3ccccc3-c3ccc(C(F)(F)F)cc3)cc2)CC1)c1ccccc1` (stereo not shown) [Compound 115]: 948 nM; `CCCNC(=O)C(c1ccccc1)N(C)C1CCN(c2ccc(NC(=O)c3ccccc3-c3ccc(C(F)(F)F)cc3)cc2)C1` (stereo not shown) [Compound 116]: 94.8 nM.
Same read-out and setting: next, `CCCNC(=O)C(NC1CCN(c2ccc(NC(=O)c3ccccc3-c3ccc(C(F)(F)F)cc3)cc2)C1)c1ccccc1` (stereo not shown) [Compound 117]: less than 30 nM.

System in the next data set: not given
Experiment: not given
Settings: not given
As usually defined, the melting point is the temperature of the solid-liquid transition. Compound `COC(=O)C(NC/C=C/c1ccc(NC(=O)c2ccccc2-c2ccc(C(F)(F)F)cc2)cc1)c1ccccc1` (stereo not shown) [Compound 137] gave a melting point of 142 °C.
